Source: publication PMC10376420, “Antioxidant, Antidiabetic, and Anti-Obesity Properties of Apple Pulp Extracts (Malus domestica Bork): A Comparative Study of 15 Local and Commercial Cultivars from Spain” (Biology, 2023)
Values after ≈ are worked out from the molar mass of the structure shown.

Target: T1, α-glucosidase from Saccharomyces cerevisiae
T1 construct: gene MAL12
Assay: pNPG hydrolysis, absorbance […] nm
Type: biochemical
Conditions: substrate pNPG (50 uL of 3 mM in 200 uL), 37 °C

- IC50: 2.98 ± 0.40 µg/mL (≈ 9.86 µM)
Structure (SMILES): O=c1c(O)c(-c2ccc(O)c(O)c2)oc2cc(O)cc(O)c12 [Quercetin]
